The text below walks through data of patent publication US9469617B2, “Molecules having certain pesticidal utilities, and intermediates, compositions, and processes related thereto” (priority 2014, dated 2016).

Broadly, the mortality is the share of the test organisms that died.

What all share (assay type): in vivo
Series [1] relates to Beet Armyworm (BAW) (Spodoptera exigua). As to the kind of experiment: Bioassay on Beet Armyworm (BAW), 128-well diet tray assay. The note with it: 168 h, Table ABC, 50 μg/cm^2 on artificial diet, second instar larvae, five to seven days, 25° C., read-out: BAW % Control (or Mortality) rating. On the procedure:
(§1) Certain molecules disclosed in this document were tested against BAW and CL using procedures described in the following examples. In the reporting of the results, the “BAW & CL Rating Table” was used (See Table Section).
Bioassays on BAW were conducted using a 128-well diet tray assay. one to five second instar BAW larvae were placed in each well (3 mL) of the diet tray that had been previously filled with 1 mL of artificial diet to which 50 μg/cm^2 of the test compound (dissolved in 50 μL of 90:10 acetone-water mixture) had been applied (to each of eight wells) and then allowed to dry. Trays were covered with a clear self-adhesive cover, and held at 25° C., 14:10 light-dark for five to seven days. Percent mortality was recorded for the larvae in each well; activity in the eight wells was then averaged. The results are indicated in the tables entitled “Table ABC: Assay Results” and “Table ABCD: Assay Results” (See Table Section).

In series [2] the test system is Cabbage Looper (CL) (Trichoplusia ni). In words: Bioassay on Cabbage Looper (CL), 128-well diet tray assay. The note with it: 168 h, Table ABC, 50 μg/cm^2 on artificial diet, second instar larvae, five to seven days, 25° C., read-out: CL % Control (or Mortality) rating. On the procedure:
as §1
Bioassays on CL were conducted using a 128-well diet tray assay. One to five second instar CL larvae were placed in each well (3 mL) of the diet tray that had been previously filled with 1 mL of artificial diet to which 50 μg/cm^2 of the test compound (dissolved in 50 μL of 90:10 acetone-water mixture) had been applied (to each of eight wells) and then allowed to dry. Trays were covered with a clear self-adhesive cover, and held at 25° C., 14:10 light-dark for five to seven days. Percent mortality was recorded for the larvae in each well; activity in the eight wells was then averaged. The results are indicated in the table entitled “Table ABC: Assay Results” and “Table ABCD: Assay Results” (See Table Section).

For series [3], the system named is Yellow Fever Mosquito (YFM) (Aedes aegypti). As to the kind of experiment: Bioassay on Yellow Fever Mosquito (YFM) larvae, 96-well plate. The note with it: Table ABC; about 1 day-old larvae, master plate 4000 ppm in DMSO diluted, scored on mortality after 3 days. On the procedure: Certain molecules disclosed in this document were tested against YFM using procedures described in the following paragraph. In the reporting of the results, the “GPA & YFM Rating Table” was used (See Table Section).
Master plates containing 400 μg of a molecule dissolved in 100 μL of dimethyl sulfoxide (DMSO) (equivalent to a 4000 ppm solution) are used. A master plate of assembled molecules contains 15 μL per well. To this plate, 135 μL of a 90:10 water:acetone mixture is added to each well. A robot (Biomek® NXP Laboratory Automation Workstation) is programmed to dispense 15 μL aspirations from the master plate into an empty 96-well shallow plate (“daughter” plate). There are 6 reps (“daughter” plates) created per master. The created daughter plates are then immediately infested with YFM larvae.
The day before plates are to be treated, mosquito eggs are placed in Millipore water containing liver powder to begin hatching (4 g. into 400 mL). After the daughter plates are created using the robot, they are infested with 220 μL of the liver powder/larval mosquito mixture (about 1 day-old larvae). After plates are infested with mosquito larvae, a non-evaporative lid is used to cover the plate to reduce drying. Plates are held at room temperature for 3 days prior to grading. After 3 days, each well is observed and scored based on mortality.

With `COc1ccc(C(C)C)c(N2C(=O)CS/C2=N\C(=O)NC2Cc3ccc(-c4ncn(-c5ccc(OC(F)(F)F)cc5)n4)cc3C2)c1` (stereo not drawn) [P9, (Z)-1-(3-(2-Isopropyl-5-methoxyphenyl)-4-oxothiazolidin-2-ylidene)-3-(5-(1-(4-(trifluoromethoxy)phenyl)-1H-1,2,4-triazol-3-yl)-2,3-dihydro-1H-inden-2-yl)urea], the mortality at 50 µg/cm2 in series [1] and in series [2] was 50 to 100% in each case. For the same compound, in series [3], the “YFM % Control (or Mortality) rating” value was “A (80-100)”.

Turning to `CC(C)c1cc(F)ccc1N1C(=O)CS/C1=N\C(=O)NC1Cc2ccc(-c3ncn(-c4ccc(OC(F)(F)F)cc4)n3)cc2C1` (stereo not drawn) [P10, (Z)-1-(3-(4-Fluoro-2-isopropylphenyl)-4-oxothiazolidin-2-ylidene)-3-(5-(1-(4-(trifluoromethoxy)phenyl)-1H-1,2,4-triazol-3-yl)-2,3-dihydro-1H-inden-2-yl)urea], the mortality at 50 µg/cm2 in series [1] and in series [2] was 50 to 100% throughout. For the same compound, the “YFM % Control (or Mortality) rating” value in series [3] is listed as “A (80-100)”.

`Cc1ccc(C(C)C)c(-n2c(C)cs/c2=N\C(=O)NC2Cc3ccc(-c4ncn(-c5ccc(OC(F)(F)F)cc5)n4)cc3C2)c1` (stereo not drawn) [P12, (Z)-1-(3-(2-Isopropyl-5-methylphenyl)-4-methylthiazol-2(3H)-ylidene)-3-(5-(1-(4-(trifluoromethoxy)phenyl)-1H-1,2,4-triazol-3-yl)-2,3-dihydro-1H-inden-2-yl)urea]: the mortality at 50 µg/cm2 in series [1] and in series [2] was 50 to 100% throughout. The “YFM % Control (or Mortality) rating” value in series [3] is “A (80-100)”.

On to `Cc1ccc(C(C)C)c(N2C(=O)C(C)S/C2=N\C(=O)NC2Cc3ccc(-c4ncn(-c5ccc(OC(F)(F)F)cc5)n4)cc3C2)c1` (stereo not drawn) [P13, (Z)-1-(3-(2-Isopropyl-5-methylphenyl)-5-methyl-4-oxothiazolidin-2-ylidene)-3-(5-(1-(4-(trifluoromethoxy)phenyl)-1H-1,2,4-triazol-3-yl)-2,3-dihydro-1H-inden-2-yl)urea], for which the mortality at 50 µg/cm2 in series [1] and in series [2] was 50 to 100% in each case. The “YFM % Control (or Mortality) rating” value in series [3] was “B (More than 0-Less than 80)”.

`Cc1ccc(C(C)C)c(N2CC(C)CS/C2=N\C(=O)NC2Cc3ccc(-c4ncn(-c5ccc(OC(F)(F)F)cc5)n4)cc3C2)c1` (stereo not drawn) [P18, (Z)-1-(3-(2-isopropyl-5-methylphenyl)-5-methyl-1,3-thiazinan-2-ylidene)-3-(5-(1-(4-(trifluoromethoxy)phenyl)-1H-1,2,4-triazol-3-yl)-2,3-dihydro-1H-inden-2-yl)urea]: the mortality at 50 µg/cm2 in series [1] and in series [2] was 50 to 100% each time. In addition, the “YFM % Control (or Mortality) rating” value in series [3] is “A (80-100)”.

On to `CC(C)c1ccccc1N1CCCS/C1=N\C(=O)NC1Cc2ccc(-c3ncn(-c4ccc(OC(F)(F)F)cc4)n3)cc2C1` (stereo not drawn) [P19, (Z)-1-(3-(2-Isopropylphenyl)-1,3-thiazinan-2-ylidene)-3-(5-(1-(4-(trifluoromethoxy)phenyl)-1H-1,2,4-triazol-3-yl)-2,3-dihydro-1H-inden-2-yl)urea], for which the mortality at 50 µg/cm2 in series [1] and in series [2] was 50 to 100% throughout. For the same compound, in series [3], the “YFM % Control (or Mortality) rating” value is recorded as “A (80-100)”.

As to `Cc1ccc(C(C)C)c(N2CCCS/C2=N\C(=O)NC2Cc3ccc(-c4ncn(-c5ccc(OC(F)(F)F)cc5)n4)cc3C2)c1` (stereo not drawn) [P20, (Z)-1-(3-(2-Isopropyl-5-methylphenyl)-1,3-thiazinan-2-ylidene)-3-(5-(1-(4-(trifluoromethoxy)phenyl)-1H-1,2,4-triazol-3-yl)-2,3-dihydro-1H-inden-2-yl)urea], the mortality at 50 µg/cm2 in series [1] and in series [2] was 50 to 100% throughout. In series [3], the “YFM % Control (or Mortality) rating” value is given as “A (80-100)”.

As to `Cc1ccc(C(C)C)c(NC(=S)NC(=O)NC2CCc3cc(-c4ncn(-c5ccc(OC(F)(F)F)cc5)n4)ccc3C2)c1` (stereo not drawn) [P21, 1-[(2-Isopropyl-5-methyl-phenyl)carbamothioyl]-3-[6-[1-[4-(trifluoromethoxy)phenyl]-1,2,4-triazol-3-yl]tetralin-2-yl]urea], the mortality at 50 µg/cm2 in series [1] and in series [2] was 50 to 100% throughout. Further, the “YFM % Control (or Mortality) rating” value in series [3] is “A (80-100)”.

Consider `CC(C)c1ccccc1NC(=S)NC(=O)NC1CCc2cc(-c3ncn(-c4ccc(OC(F)(F)F)cc4)n3)ccc2C1` (stereo not drawn) [P22, 1-[(2-Isopropylphenyl)carbamothioyl]-3-[6-[1-[4-(trifluoromethoxy)phenyl]-1,2,4-triazol-3-yl]tetralin-2-yl]urea], for which the mortality at 50 µg/cm2 in series [1] and in series [2] was 50 to 100% throughout. In addition, in series [3], the “YFM % Control (or Mortality) rating” value was “A (80-100)”.

Regarding `CC(C)c1ccccc1N1C(=O)CS/C1=N\C(=O)NC1CCc2cc(-c3ncn(-c4ccc(OC(F)(F)F)cc4)n3)ccc2C1` (stereo not drawn) [P24, (Z)-1-(3-(2-Isopropylphenyl)-4-oxothiazolidin-2-ylidene)-3-(6-(1-(4-(trifluoromethoxy)phenyl)-1H-1,2,4-triazol-3-yl)-1,2,3,4-tetrahydronaphthalen-2-yl)urea], the mortality at 50 µg/cm2 in series [1] and in series [2] was 50 to 100% throughout. In series [3], the “YFM % Control (or Mortality) rating” value is reported as “A (80-100)”.

For `Cc1ccc(C)c(NC(=S)NC(=O)NC2CCc3cc(-c4ncn(-c5ccc(OC(F)(F)F)cc5)n4)ccc3C2)c1` (stereo not drawn) [P25, 1-[(2,5-Dimethylphenyl)carbamothioyl]-3-[6-[1-[4-(trifluoromethoxy)phenyl]-1,2,4-triazol-3-yl]tetralin-2-yl]urea], the mortality at 50 µg/cm2 in series [1] and in series [2] was 50 to 100% in each case. The “YFM % Control (or Mortality) rating” value in series [3] is “A (80-100)”.

Take `CC(C)c1ccc(Cl)cc1NC(=S)NC(=O)NC1CCc2cc(-c3ncn(-c4ccc(OC(F)(F)F)cc4)n3)ccc2C1` (stereo not drawn) [P26, 1-[(5-Chloro-2-isopropyl-phenyl)carbamothioyl]-3-[6-[1-[4-(trifluoromethoxy)phenyl]-1,2,4-triazol-3-yl]tetralin-2-yl]urea]: the mortality at 50 µg/cm2 in series [1] and in series [2] was 50 to 100% throughout. For the same compound, the “YFM % Control (or Mortality) rating” value in series [3] is “A (80-100)”.

As to `CCCc1ccc(C)cc1NC(=S)NC(=O)NC1CCc2cc(-c3ncn(-c4ccc(OC(F)(F)F)cc4)n3)ccc2C1` (stereo not drawn) [P27, 1-[(5-Methyl-2-propyl-phenyl)carbamothioyl]-3-[6-[1-[4-(trifluoromethoxy)phenyl]-1,2,4-triazol-3-yl]tetralin-2-yl]urea], the mortality at 50 µg/cm2 in series [1] and in series [2] was 50 to 100% each time. Further, the “YFM % Control (or Mortality) rating” value in series [3] was “A (80-100)”.

In the case of `COc1ccc(NC(=S)NC(=O)NC2CCc3cc(-c4ncn(-c5ccc(OC(F)(F)F)cc5)n4)ccc3C2)c(C)c1` (stereo not drawn) [P28, 1-[(4-Methoxy-2-methyl-phenyl)carbamothioyl]-3-[6-[1-[4-(trifluoromethoxy)phenyl]-1,2,4-triazol-3-yl]tetralin-2-yl]urea], the mortality at 50 µg/cm2 in series [1] and in series [2] was 50 to 100% throughout. Moreover, the “YFM % Control (or Mortality) rating” value in series [3] was “A (80-100)”.

For `CCc1cccc(C)c1NC(=S)NC(=O)NC1CCc2cc(-c3ncn(-c4ccc(OC(F)(F)F)cc4)n3)ccc2C1` (stereo not drawn) [P29, 1-[(2-Ethyl-6-methyl-phenyl)carbamothioyl]-3-[6-[1-[4-(trifluoromethoxy)phenyl]-1,2,4-triazol-3-yl]tetralin-2-yl]urea], the mortality at 50 µg/cm2 in series [1] and in series [2] was 50 to 100% throughout. Also, the “YFM % Control (or Mortality) rating” value in series [3] is recorded as “A (80-100)”.

With `Cc1ccc(Cl)c(NC(=S)NC(=O)NC2CCc3cc(-c4ncn(-c5ccc(OC(F)(F)F)cc5)n4)ccc3C2)c1` (stereo not drawn) [P30, 1-[(2-Chloro-5-methyl-phenyl)carbamothioyl]-3-[6-[1-[4-(trifluoromethoxy)phenyl]-1,2,4-triazol-3-yl]tetralin-2-yl]urea], the mortality at 50 µg/cm2 in series [1] and in series [2] was 50 to 100% in each case. Besides, the “YFM % Control (or Mortality) rating” value in series [3] was “A (80-100)”.
